{"source": "ChEMBL document CHEMBL1135516", "about": "“Three-dimensional quantitative structure-activity relationship analysis of ligand binding to human sequence antidigoxin monoclonal antibodies using comparative molecular field analysis” (J Med Chem, 2002)", "key": {"[1]": {"system": "Monoclonal antibody (mAb)", "experiment": "Binding affinity against murine monoclonal antibody (mAb)-40-50"}, "[2]": {"system": "Monoclonal antibody (mAb)", "experiment": "Binding affinity against human monoclonal antibody (mAb)-11E6"}, "[3]": {"system": "Monoclonal antibody (mAb)", "experiment": "Binding affinity against human monoclonal antibody (mAb)-1B3"}, "[4]": {"system": "Monoclonal antibody (mAb)", "experiment": "Binding affinity against human monoclonal antibody (mAb)-5C2"}, "[5]": {"system": "Monoclonal antibody (mAb)", "experiment": "Binding affinity against human monoclonal antibody (mAb)-7F2"}, "[6]": {"molecular_target": "Monoclonal antibody (mAb)", "experiment": "Kinetic parameter against Monoclonal antibody mAB-1B3"}, "[7]": {"molecular_target": "Monoclonal antibody (mAb)", "experiment": "Binding affinity against Monoclonal antibody mAB-1B3 using [3H]digitoxin as radioligand"}, "[8]": {"molecular_target": "Monoclonal antibody (mAb)", "experiment": "Binding affinity against Monoclonal antibody mAB-1B3 using [3H]digoxin as radioligand"}}, "note": "pKd, pKi: −log10 of the molar value."}
{"compound": "CO[C@H]1C[C@H](O[C@H]2CC[C@@]3(C)[C@H](CC[C@@H]4[C@@H]3CC[C@]3(C)[C@@H](C5=CC(=O)OC5)[C@@H](OC(C)=O)C[C@]43O)C2)O[C@@H](C)[C@@H]1O", "values": [{"measurement": "Relative Ki", "setting": "[1]", "value": 200}, {"measurement": "IC50 ratio", "setting": "[2]", "value": 3100}, {"measurement": "IC50 ratio", "setting": "[3]", "value": 180}, {"measurement": "IC50 ratio", "setting": "[4]", "value": "No inhibition"}, {"measurement": "IC50 ratio", "setting": "[5]", "value": 3200}]}
{"compound": "C[C@]12CC[C@H]3[C@@H](CC[C@]4(O)C[C@@H](O)CC[C@]34C=O)[C@@]1(O)CC[C@@H]2C1=CC(=O)OC1", "values": [{"measurement": "Relative Ki", "setting": "[1]", "value": 4}, {"measurement": "IC50 ratio", "setting": "[2]", "value": 66}, {"measurement": "IC50 ratio", "setting": "[3]", "value": 3000}, {"measurement": "IC50 ratio", "setting": "[4]", "value": 470}, {"measurement": "IC50 ratio", "setting": "[5]", "value": 84}]}
{"compound": "CC(=O)O[C@H]1C[C@]2(O)[C@@H]3CC[C@@H]4C[C@@H](O[C@@H]5C[C@H](O)[C@H](O[C@H]6C[C@H](O)[C@H](O[C@H]7C[C@H](O)[C@H](O)[C@@H](C)O7)[C@@H](C)O6)[C@@H](C)O5)CC[C@]4(C)[C@H]3CC[C@]2(C)[C@H]1C1=CC(=O)OC1", "values": [{"measurement": "Relative Ki", "setting": "[1]", "value": 58}, {"measurement": "IC50 ratio", "setting": "[2]", "value": 400}, {"measurement": "IC50 ratio", "setting": "[3]", "value": 49}, {"measurement": "IC50 ratio", "setting": "[4]", "value": 290}, {"measurement": "IC50 ratio", "setting": "[5]", "value": 330}]}
{"compound": "C[C@H]1O[C@@H](O[C@H]2[C@@H](O)C[C@H](O[C@H]3[C@@H](O)C[C@H](O[C@H]4CC[C@@]5(C)[C@H](CC[C@@H]6[C@@H]5CC[C@]5(C)[C@@H](C7=CC(=O)OC7)CC[C@]65O)C4)O[C@@H]3C)O[C@@H]2C)C[C@H](O)[C@@H]1O", "note": "[DIGITOXIN]", "values": [{"measurement": "Relative Ki", "setting": "[1]", "value": 1}, {"measurement": "IC50 ratio", "setting": "[2]", "value": 1.7}, {"measurement": "IC50 ratio", "setting": "[3]", "value": 0.3}, {"measurement": "IC50 ratio", "setting": "[4]", "value": 10}, {"measurement": "IC50 ratio", "setting": "[5]", "value": 8}, {"measurement": "pKd", "setting": "[6]", "value": 9.22}, {"measurement": "pKi", "setting": "[7]", "value": 9.70}, {"measurement": "pKi", "setting": "[8]", "value": 10.00}]}
{"compound": "C[C@H]1O[C@@H](O[C@H]2[C@@H](O)C[C@H](O[C@H]3[C@@H](O)C[C@H](O[C@H]4CC[C@@]5(C)[C@H](CC[C@@H]6[C@@H]5CC[C@]5(C)[C@@H](C7=CC(=O)OC7)[C@@H](O)C[C@]65O)C4)O[C@@H]3C)O[C@@H]2C)C[C@H](O)[C@@H]1O", "values": [{"measurement": "Relative Ki", "setting": "[1]", "value": 16}, {"measurement": "IC50 ratio", "setting": "[2]", "value": 73}, {"measurement": "IC50 ratio", "setting": "[3]", "value": 11}, {"measurement": "IC50 ratio", "setting": "[4]", "value": 130}, {"measurement": "IC50 ratio", "setting": "[5]", "value": 81}]}
{"compound": "CC(=O)O[C@H]1CC[C@]2(C=O)[C@H]3CC[C@]4(C)[C@@H](C5=CC(=O)OC5)CC[C@]4(O)[C@@H]3CC[C@]2(O)C1", "values": [{"measurement": "Relative Ki", "setting": "[1]", "value": 10}, {"measurement": "IC50 ratio", "setting": "[2]", "value": 18}, {"measurement": "IC50 ratio", "setting": "[3]", "value": 600}, {"measurement": "IC50 ratio", "setting": "[4]", "value": 44}, {"measurement": "IC50 ratio", "setting": "[5]", "value": 17}]}
{"compound": "CC(=O)O[C@H]1CC[C@@]2(C)[C@H](CC[C@@H]3[C@@H]2C[C@@H](O)[C@]2(C)[C@@H](C4=CC(=O)OC4)CC[C@]32O)C1", "values": [{"measurement": "Relative Ki", "setting": "[1]", "value": 0.7}, {"measurement": "IC50 ratio", "setting": "[2]", "value": 96}, {"measurement": "IC50 ratio", "setting": "[3]", "value": 70}, {"measurement": "IC50 ratio", "setting": "[4]", "value": 140}, {"measurement": "IC50 ratio", "setting": "[5]", "value": 110}]}
{"compound": "C[C@@H]1O[C@H](O[C@H]2CC[C@@]3(C)[C@H](CC[C@@H]4[C@@H]3CC[C@]3(C)[C@@H](C5=CC(=O)OC5)CC[C@]43O)C2)[C@@H](O)[C@@H](O)[C@@H]1O", "values": [{"measurement": "Relative Ki", "setting": "[1]", "value": 0.6}, {"measurement": "IC50 ratio", "setting": "[2]", "value": 29}, {"measurement": "IC50 ratio", "setting": "[3]", "value": 40}, {"measurement": "IC50 ratio", "setting": "[4]", "value": 21}, {"measurement": "IC50 ratio", "setting": "[5]", "value": 22}]}
{"compound": "CO[C@H]1[C@H](O)[C@H](O[C@H]2CC[C@@]3(C)[C@H](CC[C@@H]4[C@@H]3CC[C@]3(C)[C@@H](C5=CC(=O)OC5)CC[C@]43O)C2)O[C@@H](C)[C@@H]1O", "values": [{"measurement": "Relative Ki", "setting": "[1]", "value": 1}, {"measurement": "IC50 ratio", "setting": "[2]", "value": 17}, {"measurement": "IC50 ratio", "setting": "[3]", "value": 69}, {"measurement": "IC50 ratio", "setting": "[4]", "value": 21}, {"measurement": "IC50 ratio", "setting": "[5]", "value": 9.5}]}
{"compound": "C[C@]12CC[C@H](O)C[C@H]1CC[C@@H]1[C@@H]2C[C@@H](O)[C@]2(C)[C@@H](C3=CC(=O)OC3)CC[C@]12O", "note": "[DIGOXIGENIN]", "values": [{"measurement": "Relative Ki", "setting": "[1]", "value": 2}, {"measurement": "IC50 ratio", "setting": "[2]", "value": 6.2}, {"measurement": "IC50 ratio", "setting": "[3]", "value": 2700}, {"measurement": "IC50 ratio", "setting": "[4]", "value": 2.9}, {"measurement": "IC50 ratio", "setting": "[5]", "value": 4.6}, {"measurement": "pKi", "setting": "[7]", "value": 5.77}, {"measurement": "pKi", "setting": "[8]", "value": 5.51}]}
{"compound": "C[C@]12CC[C@H](O)C[C@H]1CC[C@@H]1[C@@H]2CC[C@]2(C)[C@@H](C3=CC(=O)OC3)CC[C@]12O", "note": "[DIGITOXIGENIN]", "values": [{"measurement": "Relative Ki", "setting": "[1]", "value": 2}, {"measurement": "IC50 ratio", "setting": "[2]", "value": 14}, {"measurement": "IC50 ratio", "setting": "[3]", "value": 1800}, {"measurement": "IC50 ratio", "setting": "[4]", "value": 14}, {"measurement": "IC50 ratio", "setting": "[5]", "value": 16}, {"measurement": "pKi", "setting": "[7]", "value": 6.06}, {"measurement": "pKi", "setting": "[8]", "value": 6.00}]}
{"compound": "C[C@]12CC[C@H](O)C[C@H]1CC[C@@H]1[C@@H]2CC[C@]2(C)[C@@H](C3=CC(=O)OC3)[C@@H](O)C[C@]12O", "values": [{"measurement": "Relative Ki", "setting": "[1]", "value": 93}, {"measurement": "IC50 ratio", "setting": "[2]", "value": 2100}, {"measurement": "IC50 ratio", "setting": "[3]", "value": 4700}, {"measurement": "IC50 ratio", "setting": "[4]", "value": 2700}, {"measurement": "IC50 ratio", "setting": "[5]", "value": 2000}]}
{"compound": "C[C@H]1O[C@@H](O[C@H]2[C@@H](O)C[C@H](O[C@H]3[C@@H](O)C[C@H](O[C@H]4CC[C@@]5(C)[C@H](CC[C@@H]6[C@@H]5C[C@@H](O)[C@]5(C)[C@@H](C7=CC(=O)OC7)CC[C@]65O)C4)O[C@@H]3C)O[C@@H]2C)C[C@H](O)[C@@H]1O", "note": "[DIGOXIN]", "values": [{"measurement": "Relative Ki", "setting": "[1]", "value": 1}, {"measurement": "IC50 ratio", "setting": "[2]", "value": 1}, {"measurement": "IC50 ratio", "setting": "[3]", "value": 1}, {"measurement": "IC50 ratio", "setting": "[4]", "value": 1}, {"measurement": "IC50 ratio", "setting": "[5]", "value": 1}, {"measurement": "pKd", "setting": "[6]", "value": 8.51}, {"measurement": "pKi", "setting": "[7]", "value": 9.10}, {"measurement": "pKi", "setting": "[8]", "value": 8.92}]}
{"compound": "CC(=O)[C@H]1CC[C@H]2[C@@H]3CCC4=CC(=O)CC[C@]4(C)[C@H]3CC[C@]12C", "note": "[PROGESTERONE]", "values": [{"measurement": "IC50 ratio", "setting": "[2]", "value": 100}, {"measurement": "IC50 ratio", "setting": "[3]", "value": 36000}, {"measurement": "IC50 ratio", "setting": "[4]", "value": 55}, {"measurement": "IC50 ratio", "setting": "[5]", "value": 69}, {"measurement": "pKi", "setting": "[8]", "value": 4.44}]}
{"compound": "C[C@@H]1O[C@@H](O[C@H]2C[C@@H](O)[C@]3(CO)[C@H]4[C@H](O)C[C@]5(C)[C@@H](C6=CC(=O)OC6)CC[C@]5(O)[C@@H]4CC[C@]3(O)C2)[C@H](O)[C@H](O)[C@H]1O", "values": [{"measurement": "Relative Ki", "setting": "[1]", "value": 7}, {"measurement": "IC50 ratio", "setting": "[2]", "value": 38000}, {"measurement": "IC50 ratio", "setting": "[3]", "value": 4100}, {"measurement": "IC50 ratio", "setting": "[4]", "value": "No inhibition"}, {"measurement": "IC50 ratio", "setting": "[5]", "value": 39000}]}
{"compound": "C[C@]12C[C@@H](O)[C@H]3[C@@H](CC[C@]4(O)C[C@@H](O)C[C@@H](O)[C@]34CO)[C@@]1(O)CC[C@@H]2C1=CC(=O)OC1", "values": [{"measurement": "Relative Ki", "setting": "[1]", "value": 9}, {"measurement": "IC50 ratio", "setting": "[2]", "value": 6600}, {"measurement": "IC50 ratio", "setting": "[3]", "value": 52000}, {"measurement": "IC50 ratio", "setting": "[4]", "value": "No inhibition"}, {"measurement": "IC50 ratio", "setting": "[5]", "value": 13000}]}
{"compound": "C[C@H]1O[C@@H](O[C@H]2CC[C@@]3(C)[C@H](CC[C@@H]4[C@@H]3C[C@@H](O)[C@]3(C)[C@@H](C5=CC(=O)OC5)CC[C@]43O)C2)C[C@H](O)[C@@H]1O", "values": [{"measurement": "Relative Ki", "setting": "[1]", "value": 0.6}, {"measurement": "IC50 ratio", "setting": "[2]", "value": 0.9}, {"measurement": "IC50 ratio", "setting": "[3]", "value": 5.9}, {"measurement": "IC50 ratio", "setting": "[4]", "value": 1.3}, {"measurement": "IC50 ratio", "setting": "[5]", "value": 1}]}
